ChEMBL document CHEMBL1201862, “PubChem BioAssay data set” (2004)
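Cultured in 96-well plates, cells were exposed to test compound for 48 hours across five concentrations. GI50 is the concentration that inhibits growth by half.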 Activity calls are given as the source filed them. Cut-off read from the data, not from the text of the source: active = GI50 up to about 1.1 µM and inactive = higher.

Key:
Assay in all cases: NCI anticancer screen, dose series, 48 h
786-0 = tested on: 786-0
HCC 2998 = tested on: HCC 2998
SK-MEL-5 = tested on: SK-MEL-5
HOP-92 = tested on: HOP-92
MDA-N = tested on: MDA-N
PC-3 = tested on: PC-3
HOP-62 = tested on: HOP-62
CCRF-CEM = tested on: CCRF-CEM
KM12 = tested on: KM12
SNB-75 = tested on: SNB-75
OVCAR-3 = tested on: OVCAR-3
IGROV-1 = tested on: IGROV-1
HCT-15 = tested on: HCT-15
A498 = tested on: A498
MDA-MB-231 = tested on: MDA-MB-231
NCI/ADR-RES = tested on: NCI/ADR-RES
CAKI-1 = tested on: CAKI-1
M14 = tested on: M14
MCF7 = tested on: MCF7

| Structure (SMILES) | GI50 (786-0) | GI50 (HCC 2998) | GI50 (SK-MEL-5) | GI50 (HOP-92) | GI50 (MDA-N) | GI50 (PC-3) | GI50 (HOP-62) | GI50 (CCRF-CEM) | GI50 (KM12) | GI50 (SNB-75) | GI50 (OVCAR-3) | GI50 (IGROV-1) | GI50 (HCT-15) | GI50 (A498) | GI50 (MDA-MB-231) | GI50 (NCI/ADR-RES) | GI50 (CAKI-1) | GI50 (M14) | GI50 (MCF7) |
| --- | --- | --- | --- | --- | --- | --- | --- | --- | --- | --- | --- | --- | --- | --- | --- | --- | --- | --- | --- |
| CCOC(=O)C(NNS(=O)(=O)c1ccc(C)cc1)S(=O)(=O)C(F)(F)C(F)(F)C(F)(F)C(F)(F)F (stereo not drawn) | > 100 µM (inactive) | > 100 µM (inactive) | > 100 µM (inactive) | 54.7 µM (inactive) | > 100 µM (inactive) | > 100 µM (inactive) | > 100 µM (inactive) | > 10 µM (inactive) | > 100 µM (inactive) | > 100 µM (inactive) | > 100 µM (inactive) | > 100 µM (inactive) | > 100 µM | > 100 µM (inactive) | > 100 µM (inactive) | > 100 µM (inactive) | > 100 µM (inactive) | > 100 µM (inactive) | > 100 µM (inactive) |
| O=C1CCC[C@H]2O[C@@H](COCc3ccccc3)C[C@@H]12 | > 100 µM (inactive) |  | > 100 µM (inactive) | > 100 µM (inactive) | > 100 µM (inactive) | > 100 µM (inactive) | > 100 µM (inactive) | > 100 µM (inactive) | > 100 µM (inactive) | > 100 µM (inactive) | > 100 µM (inactive) |  | > 100 µM | > 100 µM (inactive) | > 100 µM (inactive) | > 100 µM (inactive) | > 100 µM (inactive) | > 100 µM (inactive) | > 100 µM (inactive) |
| COC(=O)C1(O)c2ccccc2N=C2C(=O)c3ccccc3N21 (stereo not drawn) [METHYLISATOID] | > 100 µM (inactive) | > 100 µM (inactive) | 49.8 µM (inactive) | > 100 µM (inactive) | 15.7 µM (inactive) | 36.6 µM (inactive) | > 100 µM (inactive) | > 100 µM (inactive) | > 100 µM (inactive) | > 100 µM (inactive) | 45.3 µM (inactive) | > 100 µM (inactive) | > 100 µM | > 100 µM (inactive) | 41.6 µM (inactive) | > 100 µM (inactive) | > 100 µM (inactive) |  | > 100 µM (inactive) |
| S=C(c1c[nH]c2ccccc12)N1CCCCC1 | > 100 µM (inactive) |  | 40 µM (inactive) |  | > 100 µM (inactive) | 49.8 µM (inactive) | > 100 µM (inactive) | 89.9 µM (inactive) | > 100 µM (inactive) |  | > 100 µM (inactive) | 67.9 µM (inactive) | 82.2 µM | > 100 µM (inactive) | > 100 µM (inactive) | 66.5 µM (inactive) | > 100 µM (inactive) | > 100 µM (inactive) | 84.1 µM (inactive) |
| Nc1cc(C(=O)O)nc(O)n1 | > 100 µM (inactive) | > 100 µM (inactive) | > 100 µM (inactive) | > 100 µM (inactive) | > 100 µM (inactive) | > 100 µM (inactive) | > 100 µM (inactive) | > 100 µM (inactive) | > 100 µM (inactive) |  | > 100 µM (inactive) | > 100 µM (inactive) | > 100 µM | > 100 µM (inactive) | > 100 µM (inactive) | > 100 µM (inactive) | > 100 µM (inactive) | > 100 µM (inactive) | > 100 µM (inactive) |
| Cn1c(=O)c2nc(CCS)[nH]c2n(C)c1=O | 51.2 µM (inactive) |  | > 100 µM (inactive) | > 100 µM (inactive) | > 100 µM (inactive) | > 100 µM (inactive) | 54.3 µM (inactive) | 55 µM (inactive) | > 100 µM (inactive) | 18.3 µM (inactive) | > 100 µM (inactive) | > 100 µM (inactive) | > 100 µM | > 100 µM (inactive) | > 100 µM (inactive) | > 100 µM (inactive) | > 100 µM (inactive) | > 100 µM (inactive) | > 100 µM (inactive) |
| CO[C@]12CC(=O)C3(C(C[C@H]4CC5CCC6=CC(=O)CC[C@]6(OC(C)=O)C5C[C@@]43C)C1)C1C[C@H]3[C@@H]4CCC5=CC(=O)CC[C@]5(OC(C)=O)[C@H]4CC[C@]3(C)C12 (stereo partly drawn) | > 100 µM (inactive) | > 100 µM (inactive) | 39.4 µM (inactive) | > 100 µM (inactive) | 58.2 µM (inactive) | > 100 µM (inactive) | > 100 µM (inactive) | > 100 µM (inactive) |  | > 100 µM (inactive) | > 100 µM (inactive) | > 100 µM (inactive) | > 100 µM | > 100 µM (inactive) | 27.5 µM (inactive) | > 100 µM (inactive) | > 100 µM (inactive) | > 100 µM (inactive) | > 100 µM (inactive) |
| CC(C)CC(N)C(=O)Nc1ccc2ccccc2c1 (stereo not drawn) | > 100 µM (inactive) | > 100 µM (inactive) | > 100 µM (inactive) |  | > 100 µM (inactive) | > 100 µM (inactive) | > 100 µM (inactive) | > 100 µM (inactive) | 0.316 µM (active) | > 100 µM (inactive) | 8.2 µM (inactive) | > 100 µM (inactive) | > 100 µM | > 100 µM (inactive) | > 100 µM (inactive) | > 100 µM (inactive) | 63.1 µM (inactive) | > 100 µM (inactive) | > 100 µM (inactive) |
| COC(=O)c1cc(C)n(CN(Cc2ccccc2)Cn2nc(C(=O)OC)cc2C)n1 | 68.1 µM (inactive) |  | 99.1 µM (inactive) | > 73.5 µM (inactive) | > 92.5 µM (inactive) | > 65.5 µM (inactive) | > 100 µM (inactive) | 17.1 µM (inactive) | > 100 µM (inactive) | > 27.2 µM (inactive) | > 100 µM (inactive) | > 66.1 µM (inactive) | > 40.7 µM | > 100 µM (inactive) | > 100 µM (inactive) | > 100 µM (inactive) | > 69.2 µM (inactive) | > 100 µM (inactive) | > 66.5 µM (inactive) |
| CC(C)(C)c1cc(C2=NN(c3ccccc3)C(c3ccccc3)C2)cc(C(C)(C)C)c1O (stereo not drawn) | > 100 µM (inactive) |  | > 100 µM (inactive) | > 100 µM (inactive) | > 100 µM (inactive) | > 100 µM (inactive) | > 100 µM (inactive) | 19.1 µM (inactive) | > 100 µM (inactive) | > 100 µM (inactive) | 54.8 µM (inactive) | > 100 µM (inactive) | > 100 µM | > 100 µM (inactive) | > 100 µM (inactive) | > 100 µM (inactive) | > 100 µM (inactive) | > 100 µM (inactive) | 93.5 µM (inactive) |
| COc1ccccc1N1C(=O)C2C3c4ccccc4C(OC(C)=O)(c4ccccc43)C2C1=O (stereo not drawn) | 39.3 µM (inactive) | > 100 µM (inactive) | > 100 µM (inactive) |  | > 100 µM (inactive) | > 100 µM (inactive) | 97.9 µM (inactive) | > 100 µM (inactive) | 77.4 µM (inactive) | 17.5 µM (inactive) | > 100 µM (inactive) | > 100 µM (inactive) | > 100 µM | > 100 µM (inactive) | > 100 µM (inactive) | > 100 µM (inactive) | > 100 µM (inactive) | > 100 µM (inactive) | 72.3 µM (inactive) |
| CCNc1cc2oc(=O)cc(C(F)(F)F)c2cc1C | > 100 µM (inactive) | > 100 µM (inactive) | > 100 µM (inactive) | 64.4 µM (inactive) | > 100 µM (inactive) | > 100 µM (inactive) | > 100 µM (inactive) |  | > 100 µM (inactive) | 27 µM (inactive) | > 100 µM (inactive) | > 100 µM (inactive) | > 100 µM | > 100 µM (inactive) | > 100 µM (inactive) | > 100 µM (inactive) | > 100 µM (inactive) | > 100 µM (inactive) | > 100 µM (inactive) |
| C=C1CC=CC(C)(C)C1C/C=C(\C)C(O)CBr (stereo not drawn) | 28.6 µM (inactive) | 87.9 µM (inactive) | 62.8 µM (inactive) | 30.9 µM (inactive) | 42.6 µM (inactive) | 47.6 µM (inactive) | > 100 µM (inactive) | 47.8 µM (inactive) | 77.1 µM (inactive) |  |  | 19.7 µM (inactive) | 51.1 µM | > 100 µM (inactive) | > 100 µM (inactive) | 19.2 µM (inactive) | 23.2 µM (inactive) | 82.6 µM (inactive) | 36.2 µM (inactive) |
| CC(C)NC1(C(N)=O)CCN(Cc2ccccc2)CC1 | > 100 µM (inactive) |  | > 100 µM (inactive) | > 100 µM (inactive) | > 100 µM (inactive) | > 100 µM (inactive) | > 100 µM (inactive) |  | > 100 µM (inactive) | > 100 µM (inactive) | > 100 µM (inactive) | > 100 µM (inactive) | > 100 µM | > 100 µM (inactive) | > 100 µM (inactive) | > 100 µM (inactive) | > 100 µM (inactive) | > 100 µM (inactive) | > 100 µM (inactive) |
| CCOC(=O)c1c[nH]c(C(=O)C=[N+]=[N-])c1C1CCN(CC)C1=S (stereo not drawn) | > 100 µM (inactive) | > 100 µM (inactive) | > 100 µM (inactive) | > 100 µM (inactive) | > 100 µM (inactive) | > 100 µM (inactive) | > 100 µM (inactive) |  | > 100 µM (inactive) | > 100 µM (inactive) | 94 µM (inactive) | > 100 µM (inactive) | > 100 µM | > 100 µM (inactive) | > 100 µM (inactive) | > 100 µM (inactive) | > 100 µM (inactive) | > 100 µM (inactive) | > 100 µM (inactive) |
| C/C(=N\Nc1nc2ccccc2o1)c1ccc2ccccc2n1 | 3.68 µM (inactive) |  | 3.15 µM (inactive) |  | 6.49 µM (inactive) | 1.83 µM (inactive) | 4.53 µM (inactive) | 2.04 µM (inactive) | 3.48 µM (inactive) | 11.6 µM (inactive) | 0.52 µM (active) | 0.356 µM (active) | 1.08 µM | 2.55 µM (inactive) | 2.98 µM (inactive) | 3.22 µM (inactive) | 1 µM (active) | 2.57 µM (inactive) | 6.12 µM (inactive) |
